Biological target: T1, human CYP2D6 (Homo sapiens, UniProt P10635)
T1 construct: from tissue; host or cells: humanized liver of chimeric mice (transplanted human hepatic cells), in vivo
Assay: Debrisoquine metabolism to 4-OHDB in chimeric mice
Type: in vivo
Settings: debrisoquine 2.0 mg/kg orally, chimera group vs sham-operated group
Experimental: Debrisoquine, which serves as a common phenotyping agent for human CYP2D6, is metabolized to 4-hydroxydebrisoquine (4-OHDB) in humans but is negligible in mice.
Debrisoquine was orally administered at a dose of 2.0 mg/kg. The data was obtained 8 hours after the oral administration and is indicated by the mean±SD.

T1 sequence (P10635 whole entry): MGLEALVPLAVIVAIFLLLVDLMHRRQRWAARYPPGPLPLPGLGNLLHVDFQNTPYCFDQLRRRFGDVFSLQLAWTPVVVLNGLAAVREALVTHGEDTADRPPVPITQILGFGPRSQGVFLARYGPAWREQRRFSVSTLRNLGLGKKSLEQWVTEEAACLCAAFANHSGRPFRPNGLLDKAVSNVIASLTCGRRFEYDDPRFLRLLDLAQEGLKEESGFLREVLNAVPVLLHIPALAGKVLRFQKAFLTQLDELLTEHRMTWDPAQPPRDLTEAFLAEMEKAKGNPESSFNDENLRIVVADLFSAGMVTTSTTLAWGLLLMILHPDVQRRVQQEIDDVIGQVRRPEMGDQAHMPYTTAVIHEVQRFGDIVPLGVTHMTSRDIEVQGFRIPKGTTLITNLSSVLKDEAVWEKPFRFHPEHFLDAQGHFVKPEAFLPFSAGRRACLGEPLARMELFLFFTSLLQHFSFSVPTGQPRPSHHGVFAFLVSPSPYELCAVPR

## N=C(N)N1CCc2ccccc2C1 [debrisoquine, Debrisoquine]
  plasma concentration of 4-OHDB following oral administration of debrisoquine: higher in the chimera group than in the sham-operated group

Source: patent publication US9532554B2, “Method for inducing hepatocellular variation, and production method for chimeric non-human animal having humanized liver” (PUBLIC UNIVERSITY CORPORATION YOKOHAMA CITY UNIVERSITY, priority 2011, dated 2017)
